The data set can be described thus: photoluminescence quantum yield (fraction); solvent given as SMILES.

Each structure is given as a SMILES string.

For `CC1(C)c2ccccc2N(c2ccccc2)c2ccc(-c3ccc(C(=O)c4ccc(-c5ccc6c(c5)C(C)(C)c5ccccc5N6c5ccccc5)cc4)cc3)cc21`, the photoluminescence quantum yield (in O=P(c1ccccc1)(c1ccccc1)c1ccccc1Oc1ccccc1P(=O)(c1ccccc1)c1ccccc1) worked out at 0.53.

Turning to `CCCN1/C(=C/C=C(/C=C/c2sc3ccccc3[n+]2CCC)c2ccc([N+](=O)[O-])cc2)C(C)(C)c2ccccc21`, the photoluminescence quantum yield is 0.03 (in CO), 0.03 (in CS(C)=O) and 0.06 (in O).

In turn, `F[B-]1(F)n2c(cc(Br)c2Br)C(c2ccccc2)=C2C=C(Br)C(c3ccc[nH]3)=[N+]21` showed a photoluminescence quantum yield (in ClC(Cl)Cl) of 0.47.

`CCN(CC)c1ccc2cc(-c3cc(SC)c(C#N)c(=O)o3)c(=O)oc2c1` had a photoluminescence quantum yield (in C1CCOC1) of 0.72; a photoluminescence quantum yield (in CC#N) of 0.56; a photoluminescence quantum yield (in CC(C)=O) of 0.67; a photoluminescence quantum yield (in CCOC(C)=O) of 0.8; a photoluminescence quantum yield (in CN(C)C=O) of 0.4; a photoluminescence quantum yield (in CO) of 0.55. Besides, the photoluminescence quantum yield by setting is: (in CS(C)=O) 0.55; (in Cc1ccccc1) 0.72; (in ClC(Cl)Cl) 0.66; (in ClCCl) 0.81.

Take `O=C([O-])c1ccccc1-c1c2ccc(=O)cc-2oc2cc([O-])ccc12`: the photoluminescence quantum yield (in O) worked out at 0.95.

As to `Cc1cc2c3ccccc3oc2c2[nH]c3ccccc3c12`, the photoluminescence quantum yield (in ClCCl) was 0.444.

In turn, `C#Cc1ccc2ccc3oc(=O)cc(C)c3c2c1` yielded a photoluminescence quantum yield (in CCO) of 0.23.

With `COc1cc2cc(/C=C/c3ccc(/C=C/c4ccc(/C=C(\C#N)C(=O)O)cc4)cc3)c(=O)oc2cc1OC`, under “in CC#N”, the photoluminescence quantum yield was 0.24.
